Source: patent US11279733B2, “Peptide antibiotics” (priority 2017, dated 2022)
Converted amounts (≈) assume the structure as drawn. Like-named read-outs stand apart in the source and are kept apart here. Positions of bridges follow the written chain, without caps; N, C: chain ends. Non-standard residues stand in square brackets, D forms with d. Residues, ends and D or L forms follow the SMILES beside them. *: point of attachment. Decanoyl(3R-OH) = CCCCCCC[C@@H](O)CC(=O)*; dBip = N[C@H](Cc1ccc(-c2ccccc2)cc1)C(=O)O; dDab = NCC[C@@H](N)C(=O)O; Dab = NCC[C@H](N)C(=O)O; Dap = NC[C@H](N)C(=O)O

Key:
[1] = In vitro nephrotoxicity, LDH release from primary human kidney cells; format: cell-based; conditions: pH 7.4
Text: (§1) hPT cells were derived from whole human kidneys procured by the International Institute for the Advancement of Medicine (Edison, N.J., USA). All tissue was scored by a pathologist as normal (i.e., derived from non-cancerous, non-diseased tissue). Cell isolation procedures were based on those originally described by Todd et al. (1996) and modified (Cummings and Lash, 2000; Cummings et al., 2000) with use of sterile conditions (i.e., all instruments and glassware were autoclaved and all buffers were filtered through a 0.2-μm pore-size filter). Renal cortex and outer stripe were cut into slices, washed with sterile PBS, minced, and the pieces were placed in a trypsinization flask filled with 300 ml of sterile, filtered Hanks' buffer, containing 25 mM NaHCO3, 25 mM HEPES, pH 7.4, 0.5 mM EGTA, 0.2% (w/v) bovine serum albumin, 50 μg/ml gentamicin, 1.3 mg/mL collagenase, and 0.59 mg/ml CaCl2), which was filtered prior to use. Whole kidneys were perfused with Wisconsin medium and kept on ice until they arrived at the laboratory, which was usually within 24 h of removal from the donor.
(§2) All buffers were continuously bubbled with 95% O2/5% CO2 and were maintained at 37° C. Minced cortical pieces from whole kidneys were subjected to collagenase digestion for 60 min, after which the supernatant was filtered through a 70-μm mesh filter to remove tissue fragments, centrifuged at 150×g for 7 min, and the pellet resuspended in Dulbecco's Modified Eagle's Medium: Ham's F12 Medium (DMEM/F12; 1/1). Approximately 5 to 7×10^6 cells were obtained per 1 g of human kidney cortical tissue.
(§3) hPT cells were resuspended in 2 mL of DMEM/F12 and diluted to 500 mL with cell culture medium, which was serum-free and hormonally-defined. Composition of this supplemented medium was based on earlier work establishing optimal conditions for primary culture of rat PT cells (Lash et al., 1995). Basal medium was a 1:1 mixture of DMEM/F12. […] Cells were seeded in a volume of 0.5 ml at a density of 50-100 μg protein per cm^2 (0.5-1.0×10^6 cells/ml) on 24-well plates. Cultures were grown at 37° C. in a humidified incubator under an atmosphere of 95% air/5% CO2 at pH 7.4. Cultures were grown to approximately 80%-90% confluence (generally 5-6 days) prior to experiments. Cells were harvested by either scraping the flasks with a Teflon scraper or by brief incubation with Cellstripper (Cellgro, Herndon, Va., USA) (in Ca^2+- and Mg^2+-free Hanks' buffer).

[2] = In vitro nephrotoxicity, GGT release from primary human kidney cells; format: cell-based; conditions: pH 7.4
Text: as §1, §2, §3
Release of gamm-glutanyltransferase was assessed according to Orlowski, M., Meister, A. 1963. γ-Glutamyl-p-nitroanilide: A new convenient substrate for determination and study of L- and D-γ-glutamyltranspeptidase activities (Biochim. Biophys. Acta 73: 679-681.)
A 2.5 mM substrate Solution was prepared from 67 mg γ-glutamyl-p-nitroanilide+264 mg glycylglycine in 100 mL of 0.05 M Tris, pH 8.2 (50 mM Tris, pH 8.2: 605 mg Tris/HCl per 100 mL).
For the assay in 96-well plates, 6-μL of sample and 0.3 mL substrate solution were added to each well. The absorbance was measured at 410 nm for the appearance of product, p-nitroanilide (molar extinction=8800 M^−1 cm^−1).

in vitro = conditions: human
In short: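 Compound exposure lasted 24 h, following 24 h attachment of 4000 cells/well at 37° C under 5% CO2.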

[3] = tested on: K. pneumoniae GN_102 PmxR; conditions: GN 102 PmxR
In short: (§4)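 Mid-log cultures grown in Mueller Hinton broth at 37° C were tested by 2-fold broth microdilution at 5×10^5 CFU/mL final. Compounds were dissolved in water and tested over a final range of 32 to 0.015 μg/mL.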

[4] = tested on: K. pneumoniae ATCC BAA-2146, NDM-1 pos; conditions: ATCC BAA-2146
In short: as §4

E. coli ATCC 25922 = conditions: ATCC 25922
In short: as §4

K. pneumoniae ATCC 13883 = conditions: ATCC 13883
In short: as §4

[5] = tested on: K. pneumoniae ATCC 700603, MDR; conditions: ATCC 700603
In short: as §4

[6] = tested on: P. aeruginosa GN_043, PmxR; conditions: polymyxin-resistant; for MIC, P. aeruginosa FADDI-PA070, PmxR: Table 5
In short: as §4

P. aeruginosa ATCC 27853 = conditions: ATCC 27853
In short: as §4

A. baumannii GN_093 PmxR = conditions: GN 093 PmxR
In short: as §4

[7] = tested on: K. pneumoniae GN_106, PmxR; conditions: GN 106, PmxR
In short: as §4

A. baumannii ATCC 19606 = conditions: ATCC 19606
In short: as §4

[8] = tested on: S. aureus ATCC 25923, MSSA; conditions: ATCC 25923
In short: as §4

[9] = tested on: P. aeruginosa GN_105, PmxR; conditions: GN 105, PmxR
In short: as §4

| SMILES | CC50 [1] | CC50 [2] | MIC, K. pneumoniae Cl Koprana 10065 0661:1, PmxR [3] | MIC, K. pneumoniae ATCC BAA-2146, NDM-1 pos [4] | MIC, E. coli ATCC 25922 (E. coli ATCC 25922) | MIC, K. pneumoniae ATCC 13883 (K. pneumoniae ATCC 13883) | MIC, K. pneumoniae ATCC 700603, MDR [5] | MIC, P. aeruginosa FADDI-PA070, PmxR [6] | MIC, P. aeruginosa ATCC 27853 (P. aeruginosa ATCC 27853) | MIC, A. baumannii Cl Ptyela 10073 4512:2, PmxR (A. baumannii GN_093 PmxR) | MIC, K. pneumoniae Cl 138-16347-20362, PmxR [7] | MIC, A. baumannii ATCC 19606 (A. baumannii ATCC 19606) | MIC, S. Aureus ATCC 25923, MSSA [8] | MIC, P. aeruginosa PA9704, PmxR [9] | MIC K. pneumoniae GN_102 PmxR [3] | MIC A. baumannii GN_093 PmxR (A. baumannii GN_093 PmxR) | MIC K. pneumoniae GN_106, PmxR [7] | MIC P. aeruginosa GN_105, PmxR [9] | also measured |
| --- | --- | --- | --- | --- | --- | --- | --- | --- | --- | --- | --- | --- | --- | --- | --- | --- | --- | --- | --- |
| CCCCCCC[C@@H](O)CC(=O)N[C@H](CCN)C(=O)N[C@H]1CCNC(=O)[C@H](CC(C)C)NC(=O)[C@H](CCN)NC(=O)[C@H](CCN)NC(=O)[C@H](CC(C)C)NC(=O)[C@@H](Cc2ccccc2)NC(=O)[C@H](CCN)NC1=O [Octapeptin C4, octapeptin C4, reference compound] ({Decanoyl(3R-OH)}-[dDab][Dab][Dab][dF]L[Dab][Dab]L; lactam 2-C) | 62 µg/mL (≈ 59.4 µM) | > 128 µg/mL |  |  |  |  |  |  |  |  |  |  |  |  |  |  |  |  |  |
| CCCCCCC[C@@H](O)CC(=O)N[C@H](CCN)C(=O)N[C@H]1CCNC(=O)[C@H](CC(C)C)NC(=O)[C@H](CCN)NC(=O)[C@H](CN)NC(=O)[C@H](CC(C)C)NC(=O)[C@@H](Cc2ccccc2)NC(=O)[C@H](CCN)NC1=O [compound 990, 3(R)OH-nC9CO-D-Dab-cyc[L-Dab-L-Dab-D-Phe-L-Leu-L-Dap-L-Dab-L-Leu]] ({Decanoyl(3R-OH)}-[dDab][Dab][Dab][dF]L[Dap][Dab]L; lactam 2-C) | 87 µg/mL (≈ 84.4 µM) | > 128 µg/mL | 4 µg/mL (≈ 3.88 µM) | 4 µg/mL (≈ 3.88 µM) | 4 µg/mL (≈ 3.88 µM) | 4 µg/mL (≈ 3.88 µM) | 4 µg/mL (≈ 3.88 µM) | 2 µg/mL (≈ 1.94 µM) | 2 µg/mL (≈ 1.94 µM) | 16 µg/mL (≈ 15.5 µM) | 4 µg/mL (≈ 3.88 µM) | 8 µg/mL (≈ 7.76 µM) | 32 µg/mL (≈ 31.1 µM) | 4 µg/mL (≈ 3.88 µM) |  |  |  |  | CC50 at 24 h (in vitro): > 300 µM |
| CCCCCCC[C@@H](O)CC(=O)N[C@H](CCN)C(=O)N[C@H]1CCNC(=O)[C@H](CC(C)C)NC(=O)[C@H](CCN)NC(=O)[C@H](CCCCN)NC(=O)[C@H](CC(C)C)NC(=O)[C@@H](Cc2ccccc2)NC(=O)[C@H](CCN)NC1=O [compound 992, 3(R)OH-nC9CO-D-Dab-cyc[L-Dab-L-Dab-D-Phe-L-Leu-L-Lys-L-Dab-L-Leu]] ({Decanoyl(3R-OH)}-[dDab][Dab][Dab][dF]LK[Dab]L; lactam 2-C) | 114 µg/mL (≈ 106 µM) | > 128 µg/mL | 4 µg/mL (≈ 3.73 µM) | 2 µg/mL (≈ 1.86 µM) | 2 µg/mL (≈ 1.86 µM) | 2 µg/mL (≈ 1.86 µM) | 2 µg/mL (≈ 1.86 µM) | 2 µg/mL (≈ 1.86 µM) | 2 µg/mL (≈ 1.86 µM) | 8 µg/mL (≈ 7.46 µM) | 4 µg/mL (≈ 3.73 µM) | 2 µg/mL (≈ 1.86 µM) | 16 µg/mL (≈ 14.9 µM) | 4 µg/mL (≈ 3.73 µM) |  |  |  |  |  |
| CCCCCCC[C@@H](O)CC(=O)N[C@H](CCN)C(=O)N[C@H]1CCNC(=O)[C@H](CC(C)C)NC(=O)[C@H](CN)NC(=O)[C@H](CCN)NC(=O)[C@H](CC(C)C)NC(=O)[C@@H](Cc2ccc(-c3ccccc3)cc2)NC(=O)[C@H](CCN)NC1=O [compound 5383, 3(R)OH-nC9CO-D-Dab-cyc[L-Dab-L-Dab-D-Bip-L-Leu-L-Dab-L-Dap-L-Leu]] ({Decanoyl(3R-OH)}-[dDab][Dab][Dab][dBip]L[Dab][Dap]L; lactam 2-C) | > 128 µg/mL | > 128 µg/mL |  |  |  |  |  |  |  |  |  |  |  |  | 8 µg/mL (≈ 7.23 µM) | 4 µg/mL (≈ 3.62 µM) | 8 µg/mL (≈ 7.23 µM) | 2 µg/mL (≈ 1.81 µM) | MIC K. pneumoniae ATCC BAA-2146, NDM-1 pos [4]: 4 µg/mL (≈ 3.62 µM); MIC E. coli ATCC 25922 (E. coli ATCC 25922): 4 µg/mL (≈ 3.62 µM); MIC K. pneumoniae ATCC 13883 (K. pneumoniae ATCC 13883): 4 µg/mL (≈ 3.62 µM); MIC K. pneumoniae ATCC 700603, MDR [5]: 4 µg/mL (≈ 3.62 µM); MIC P. aeruginosa GN_043, PmxR [6]: 2 µg/mL (≈ 1.81 µM); MIC P. aeruginosa ATCC 27853 (P. aeruginosa ATCC 27853): 2 µg/mL (≈ 1.81 µM); MIC A. baumannii ATCC 19606 (A. baumannii ATCC 19606): 4 µg/mL (≈ 3.62 µM); MIC S. aureus ATCC 25923, MSSA [8]: 2 µg/mL (≈ 1.81 µM) |
| CCCCCCC[C@@H](O)CC(=O)N[C@H](CCN)C(=O)N[C@H]1CCNC(=O)[C@H](CC(C)C)NC(=O)[C@H](CCN)NC(=O)[C@H](CCNC(=O)[C@@H](N)CCCNC(=N)N)NC(=O)[C@H](CC(C)C)NC(=O)[C@@H](Cc2ccccc2)NC(=O)[C@H](CCN)NC1=O [compound 6654, 3(R)OH-nC9CO-D-Dab-cyc[L-Dab-L-Dab-D-Phe-L-Leu-L-Dab(L-Arg)-L-Dab-L-Leu]] ({Decanoyl(3R-OH)}-[dDab][Dab][Dab][dF]L[Dab](Arg)[Dab]L; lactam 2-C) | > 128 µg/mL | > 128 µg/mL | 8 µg/mL (≈ 6.66 µM) | 8 µg/mL (≈ 6.66 µM) | 4 µg/mL (≈ 3.33 µM) | 4 µg/mL (≈ 3.33 µM) | 4 µg/mL (≈ 3.33 µM) | 2 µg/mL (≈ 1.67 µM) | 4 µg/mL (≈ 3.33 µM) | 8 µg/mL (≈ 6.66 µM) | 16 µg/mL (≈ 13.3 µM) | 8 µg/mL (≈ 6.66 µM) | 16 µg/mL (≈ 13.3 µM) | 2 µg/mL (≈ 1.67 µM) |  |  |  |  |  |
| CCCCCCC[C@@H](O)CC(=O)N[C@@H](CCN)C(=O)N[C@H]1CCNC(=O)[C@H](CC(C)C)NC(=O)[C@H](CCN)NC(=O)[C@H](CCN)NC(=O)[C@H](CC(C)C)NC(=O)[C@@H](Cc2ccccc2)NC(=O)[C@H](CCN)NC1=O [compound 8638, 3(R)OH-nC9CO-L-Dab-cyc[L-Dab-L-DAB-D-Phe-L-Leu-L-Dab-L-Dab-L-Leu]] ({Decanoyl(3R-OH)}-[Dab][Dab][Dab][dF]L[Dab][Dab]L; lactam 2-C) | > 128 µg/mL | > 128 µg/mL |  | 8 µg/mL (≈ 7.66 µM) | 2 µg/mL (≈ 1.92 µM) | 4 µg/mL (≈ 3.83 µM) | 8 µg/mL (≈ 7.66 µM) |  | 1 µg/mL (≈ 0.958 µM) |  |  | 32 µg/mL (≈ 30.6 µM) |  |  | 4 µg/mL (≈ 3.83 µM) | 32 µg/mL (≈ 30.6 µM) | 4 µg/mL (≈ 3.83 µM) | 2 µg/mL (≈ 1.92 µM) | MIC P. aeruginosa GN_043, PmxR ([6]; Table 6): 8 µg/mL (≈ 7.66 µM); MIC, S. aureus ATCC 25923, MSSA [8]: 16 µg/mL (≈ 15.3 µM) |
